Read-outs that look alike come from different tables or passages of the source.
Legend:
[1] = target: T1, CNGA3 plus CNGB3 T383fsX channels (Homo sapiens, UniProt Q16281); assay: Inside-out patch-clamp recording of channels expressed in Xenopus oocytes (CNGB3 T383fsX); type: biochemical
T1 construct: expressed in transfected cells; host or cells: Xenopus laevis oocytes injected with cRNA transcribed from pGEMHE constructs
T1 sequence (Q16281 1-694): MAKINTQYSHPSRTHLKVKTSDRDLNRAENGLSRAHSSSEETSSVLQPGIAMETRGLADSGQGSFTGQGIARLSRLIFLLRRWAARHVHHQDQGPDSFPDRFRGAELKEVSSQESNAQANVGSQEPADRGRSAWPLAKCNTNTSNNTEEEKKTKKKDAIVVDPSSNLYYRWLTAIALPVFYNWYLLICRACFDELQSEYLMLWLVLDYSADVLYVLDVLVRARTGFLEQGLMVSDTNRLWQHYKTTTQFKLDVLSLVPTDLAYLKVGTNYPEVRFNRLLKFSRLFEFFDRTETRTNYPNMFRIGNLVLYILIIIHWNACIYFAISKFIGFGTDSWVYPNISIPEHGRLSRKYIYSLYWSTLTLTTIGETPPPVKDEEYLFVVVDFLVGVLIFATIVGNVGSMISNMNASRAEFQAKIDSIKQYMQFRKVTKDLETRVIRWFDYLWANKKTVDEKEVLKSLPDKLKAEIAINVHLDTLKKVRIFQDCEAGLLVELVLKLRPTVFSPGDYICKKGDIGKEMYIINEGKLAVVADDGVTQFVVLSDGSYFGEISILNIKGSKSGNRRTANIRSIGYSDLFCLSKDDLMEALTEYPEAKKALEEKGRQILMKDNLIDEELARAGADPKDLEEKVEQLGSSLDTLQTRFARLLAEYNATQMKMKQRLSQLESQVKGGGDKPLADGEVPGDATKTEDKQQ
Method: For heterologous expression in Xenopus laevis oocytes, identical amounts of cDNA were linearized using SphI or NheI, and capped cRNA was transcribed in vitro using the T-7 RNA polymerase mMESSAGE mMACHINE® kit (Ambion, Austin, TX). cRNA concentrations and relative amounts were determined by denaturing gel electrophoresis and KODAK 1D image analysis software (Rochester, NY), as well as by spectrophotometry. […] Oocytes were incubated in ND96 (96 mM NaCl, 2 mM KCl, 1.8 mM CaCl2, 1 mM MgCl2, and 5 mM HEPES, pH 7.6, supplemented with 10 μg/ml gentamycin).
Two to seven days after microinjection of cRNA, patch-clamp experiments were performed using the inside-out configuration with an Axopatch 200B amplifier (Axon Instruments, Foster City, CA). Recordings were made at 20–23 °C. Data were acquired using Pulse software (HEKA Elektronik, Lambrecht, Germany). Current traces were elicited by voltage steps from a holding potential of 0 mV to +80 mV, then to −80 mV and back to 0 mV. Initial pipette resistances were 0.4–0.8 megaohms. Intracellular and extracellular solutions contained 130 mM NaCl, 0.2 mM EDTA, and 3 mM HEPES (pH 7.2). Intracellular solutions were exchanged using an RSC-160 rapid solution changer (Molecular Kinetics, Indianapolis, IN). Currents in the absence of cyclic nucleotides were subtracted. For channel activation by CPT-cGMP or CPT-cAMP, dose–response data were fitted with the Hill equation, I/Imax=([cNMP]^h/(K1/2^h + [cNMP]^h)), where I is the current amplitude at +80 mV, Imax is the maximum current elicited by saturating concentration of ligand, [cNMP] is the ligand concentration, K1/2 is the apparent ligand affinity, and h is the Hill slope. We measured sensitivity to block by L-cis-diltiazem (RBI, Natick, MA) applied to the intracellular face of the patch in the presence of 0.1 μM CPT-cGMP. Data were fit with a modified Hill equation in the form I blocker/I=(K1/2^h/(K1/2^h + [blocker]^h)). Data were analyzed using Igor (Wavemetrics, Lake Oswego, OR), SigmaPlot, and SigmaStat (Systat Software Inc., San Jose, CA). All values are reported as the mean±standard error of the mean of n experiments unless otherwise indicated. Statistical significance was determined using a Student t test or Mann–Whitney rank sum test, and a p value of <0.05 was considered significant.

[2] = test system: 661W cells expressing CNGA3 plus WT CNGB3; assay: LDH-release cytotoxicity assay, cells expressing WT channels; type: cell-based, mouse; details: 24 h
Method: The mouse photoreceptor 661W cell line used in this study was generously provided by Dr. Al-Ubaidi (University of Oklahoma Health Sciences Center, Oklahoma City, OK). The 661W cells were routinely maintained in Dulbecco’s modified Eagle’s medium (Gibco, Carlsbad, CA), supplemented with 10% fetal bovine serum (Gemini Bioproducts, Sacramento, CA) and 1% penicillin/streptomycin (Gibco), at 37 °C in a humidified incubator with 5% CO2; cells were subcultured every 3–5 days. The 661W cells were transfected with pOPRSVI plasmids encoding human cone CNG channel subunits using Lipofectamine™ 2000 and OptiMEM (Life Technologies, Carlsbad, CA) according to the manufacturer’s protocol for cells in suspension. […]
For most experiments, the LDH Cytotoxicity Detection Kit (Roche Applied Science) was used according to the manufacturer’s protocol (see also [37]). […] Following treatment, half of the culture medium was transferred to another 96-well plate and the LDH released into the culture medium was measured to assess the number of damaged/dead cells. Cells in the original plate were then lysed and the total amount of cellular LDH was assessed. The percentage cytotoxicity was then calculated from the ratio of LDH concentration in the medium/cells, and was normalized to the percentage cytotoxicity in untreated cells transfected with control pOPRSVI plasmid only.

SMILES	relative agonist efficacy Imax, CPT-cAMP/Imax, CPT-cGMP ([1]; +80 mV, CPT-cAMP 100 μM vs CPT-cGMP 4 μM, mean±SEM, n=8)	Hill slope h, CPT-cAMP activation ([1]; Hill fit, mean±SEM, n=9)	EC50 ([1]; Hill fit, mean±SEM, n=9, read-out: apparent affinity K1/2, CPT-cAMP (channel activation))	Hill slope h, CPT-cAMP, representative dose-response ([1]; representative patch, Figure 5A)	EC50 ([1]; representative patch, Figure 5A, read-out: K1/2, cAMP, representative dose-response for CPT-cAMP activation)	relative cytotoxicity (LDH release, normalized to untreated vector-only control) ([2]; 1 µM CPT-cAMP coapplied with 0.1 µM CPT-cGMP)	Hill slope h, CPT-cGMP activation ([1]; +80 mV, Hill fit, mean±SEM, n=8)	EC50 ([1]; +80 mV, Hill fit, mean±SEM, n=8, read-out: apparent CPT-cGMP affinity K1/2, CPT-cGMP (channel activation))	maximum patch current density (Imax/area) ([1]; +80 mV, saturating CPT-cGMP (4 μM), mean±SEM, n=9)	Hill slope h, CPT-cGMP, representative dose-response ([1]; representative patch, Figure 1B)	EC50 ([1]; representative patch, Figure 1B, read-out: K1/2, cGMP, representative dose-response for CPT-cGMP activation)	relative cytotoxicity (LDH release, normalized to untreated vector-only control) ([2]; 0.1 µM CPT-cGMP)
Nc1ncnc2c1nc(Sc1ccc(Cl)cc1)n2[C@@H]1O[C@@H]2COP(=O)(O)O[C@H]2[C@H]1O [CPT-cAMP, CPT-adenosine 3′,5′-cyclic monophosphate]	0.07±0.01	1.8±0.1	29.8 ± 1.9 µM	1.6	27.9 µM	0.98±0.03						
Nc1nc2c(nc(Sc3ccc(Cl)cc3)n2[C@@H]2O[C@@H]3COP(=O)(O)O[C@H]3[C@H]2O)c(=O)[nH]1 [CPT-cGMP, 8-(4-chlorophenylthio) guanosine 3′,5′-cyclic monophosphate]							2.2±0.1	0.105 ± 0.0073 µM	86.6±17.0 pA/μm^2	1.9	0.111 µM	1.11±0.04

— article PMC3692405, “Disease-associated mutations in CNGB3 promote cytotoxicity in photoreceptor-derived cells” (Molecular Vision, 2013)
